# Laboratory results from patent US12194048B2, “Use of pyrrolopyridine derivatives for preventing or treating inflammatory diseases” (VORONOI CO., LTD., priority 2020, dated 2025).
# Key:
# [1] = tested on: IMQ-induced psoriasis-like skin inflammation model; test: Topical treatment in imiquimod (IMQ)-induced psoriasis-like skin inflammation; format: in vivo, BALB/c mice; conditions: 0.15% topical; during the study period
# Experimental: Dexamethasone (0.15%), the reference compound, was applied topically at 20 μL/mouse on the right ear once daily (QD) during the same study period.
# Fifteen (15) mg imiquimod (IMQ) cream (5%) (Aldara; 3M Pharmaceuticals) was topically administered once daily (QD) on the right ear one hour after treatment from Day 1 to Day 9 for 9 consecutive days, translating to a daily dose of 0.75 mg of the active compound.
# Ear swelling was measured on Day 0 and thereafter 30 min before dosing on Days 2, 4, 6 and 8. On Day 10, ear swelling was measured 24 hours after the last dosing.
# [2] = tested on: IMQ-induced psoriasis-like skin inflammation model; test: Oral treatment in imiquimod (IMQ)-induced psoriasis-like skin inflammation; format: in vivo, BALB/c mice
# Experimental: The positive control, methotrexate at 2 mg/kg and tofacitinib at 5 mg/kg were administered by oral gavage twice (BID) daily during the same study period.
# Fifteen (15) mg Imiquimod (IMQ) cream (5%) (Aldara; 3M Pharmaceuticals) was topically (TOP) administered once daily (QD) on the right ear one hour after treatment from Day 1 to Day 9 for 9 consecutive days, translating to a daily dose of 0.75 mg of the active compound. Ear swelling was measured on Day 0 and thereafter 30 min before dosing on Days 2, 4, 6 and 8. On Day 10, ear swelling was measured 24 hours after the last dosing.
smiles,measurement,setting,value
"C[C@@H]1C[C@H]2[C@@H]3CCC4=CC(=O)C=C[C@]4(C)[C@@]3(F)[C@@H](O)C[C@]2(C)[C@@]1(O)C(=O)CO [dexamethasone, reference compound]",body weight,[1],significant (p<0.05) decrease
CN(Cc1cnc2nc(N)nc(N)c2n1)c1ccc(C(=O)N[C@@H](CCC(=O)O)C(=O)O)cc1 [methotrexate],body weight,"[2]; 2 mg/kg PO BID×9 days, Day 9 to Day 10",significantly decreased
same,IMQ-induced ear swelling,"[2]; 2 mg/kg oral gavage BID, Day 8, vs vehicle group",significant (p<0.05) effect
"C[C@@H]1CCN(C(=O)CC#N)C[C@@H]1N(C)c1ncnc2[nH]ccc12 [Tofacitinib, tofacitinib]",IMQ-induced ear swelling,"[2]; 5 mg/kg oral gavage BID, Day 8 to Day 10",significant (p<0.05) inhibition
